The target of one assay is T1, human TLR8 (Homo sapiens, UniProt Q9NR97).
T1 construct: expressed in transfected cells; host or cells: HEK293
T1 sequence (Q9NR97 27-1041): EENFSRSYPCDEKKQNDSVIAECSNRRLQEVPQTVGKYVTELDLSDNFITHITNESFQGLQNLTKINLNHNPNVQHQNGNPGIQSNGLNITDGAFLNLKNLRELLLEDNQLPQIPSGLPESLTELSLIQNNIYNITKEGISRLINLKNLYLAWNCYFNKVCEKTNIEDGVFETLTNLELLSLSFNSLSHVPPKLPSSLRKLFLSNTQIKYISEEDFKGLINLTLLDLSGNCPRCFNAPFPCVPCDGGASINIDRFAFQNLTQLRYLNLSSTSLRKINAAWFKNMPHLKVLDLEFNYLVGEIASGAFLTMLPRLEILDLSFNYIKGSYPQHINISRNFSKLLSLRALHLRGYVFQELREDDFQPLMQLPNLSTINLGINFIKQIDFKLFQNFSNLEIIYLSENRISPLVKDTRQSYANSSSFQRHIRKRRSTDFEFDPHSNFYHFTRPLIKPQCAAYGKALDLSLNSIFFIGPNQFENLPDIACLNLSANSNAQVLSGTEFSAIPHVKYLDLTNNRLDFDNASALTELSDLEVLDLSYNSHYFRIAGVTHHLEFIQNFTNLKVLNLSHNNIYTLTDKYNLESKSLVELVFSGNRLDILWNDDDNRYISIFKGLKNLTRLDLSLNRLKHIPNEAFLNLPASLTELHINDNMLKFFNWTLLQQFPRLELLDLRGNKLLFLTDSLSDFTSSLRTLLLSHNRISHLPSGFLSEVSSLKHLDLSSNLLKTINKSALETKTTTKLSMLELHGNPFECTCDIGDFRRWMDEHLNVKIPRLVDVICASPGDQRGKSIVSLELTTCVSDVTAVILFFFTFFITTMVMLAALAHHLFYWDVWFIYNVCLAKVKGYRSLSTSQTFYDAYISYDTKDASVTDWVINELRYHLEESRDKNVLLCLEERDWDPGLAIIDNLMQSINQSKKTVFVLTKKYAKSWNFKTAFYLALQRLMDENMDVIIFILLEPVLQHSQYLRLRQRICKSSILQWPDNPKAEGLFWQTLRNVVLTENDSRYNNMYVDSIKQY
Put plainly: TLR8 wild type NFκB-luc cellular reporter assay. The class given is cell-based. Also noted: unit not given here. As to conditions: HEK293 NFκB-luc reporter, 6 hours incubation; for TLR8-wt (LEC): second part of table. The procedure:
(§1) The ability of compounds to activate human TLR7 and/or TLR8 was assessed in a cellular reporter assay using HEK293 cells transiently transfected with a TLR7 or TLR8 expression vector and NFκB-luc reporter construct. In one instance the TLR expression construct expresses the respective wild type sequence or a mutant sequence comprising a deletion in the second leucine-rich repeat of the TLR.
(§2) Briefly, HEK293 cells were grown in culture medium (DMEM supplemented with 10% FCS and 2 mM Glutamine). For transfection of cells in 10 cm dishes, cells were detached with Trypsin-EDTA, transfected with a mix of CMV-TLR7 or TLR8 plasmid (750 ng), NFκB-luc plasmid (375 ng) and a transfection reagent and incubated 24 hours at 37° C. in a humidified 5% CO2 atmosphere. Transfected cells were then detached with Trypsin-EDTA, washed in PBS and resuspended in medium to a density of 1.67×10^5 cells/mL. Thirty microliters of cells were then dispensed into each well in 384-well plates, where 10 μL of compound in 4% DMSO was already present. Following 6 hours incubation at 37° C., 5% CO2, the luciferase activity was determined by adding 15 μl of Steady Lite Plus substrate (Perkin Elmer) to each well and readout performed on a ViewLux ultraHTS microplate imager (Perkin Elmer). Dose response curves were generated from measurements performed in quadruplicates. Lowest effective concentrations (LEC) values, defined as the concentration that induces an effect which is at least two fold above the standard deviation of the assay, were determined for each compound.

The target in another assay is T2, human TLR7 (Homo sapiens, UniProt Q9NYK1).
T2 construct: expressed in transfected cells; host or cells: HEK293
T2 sequence (Q9NYK1 27-1049): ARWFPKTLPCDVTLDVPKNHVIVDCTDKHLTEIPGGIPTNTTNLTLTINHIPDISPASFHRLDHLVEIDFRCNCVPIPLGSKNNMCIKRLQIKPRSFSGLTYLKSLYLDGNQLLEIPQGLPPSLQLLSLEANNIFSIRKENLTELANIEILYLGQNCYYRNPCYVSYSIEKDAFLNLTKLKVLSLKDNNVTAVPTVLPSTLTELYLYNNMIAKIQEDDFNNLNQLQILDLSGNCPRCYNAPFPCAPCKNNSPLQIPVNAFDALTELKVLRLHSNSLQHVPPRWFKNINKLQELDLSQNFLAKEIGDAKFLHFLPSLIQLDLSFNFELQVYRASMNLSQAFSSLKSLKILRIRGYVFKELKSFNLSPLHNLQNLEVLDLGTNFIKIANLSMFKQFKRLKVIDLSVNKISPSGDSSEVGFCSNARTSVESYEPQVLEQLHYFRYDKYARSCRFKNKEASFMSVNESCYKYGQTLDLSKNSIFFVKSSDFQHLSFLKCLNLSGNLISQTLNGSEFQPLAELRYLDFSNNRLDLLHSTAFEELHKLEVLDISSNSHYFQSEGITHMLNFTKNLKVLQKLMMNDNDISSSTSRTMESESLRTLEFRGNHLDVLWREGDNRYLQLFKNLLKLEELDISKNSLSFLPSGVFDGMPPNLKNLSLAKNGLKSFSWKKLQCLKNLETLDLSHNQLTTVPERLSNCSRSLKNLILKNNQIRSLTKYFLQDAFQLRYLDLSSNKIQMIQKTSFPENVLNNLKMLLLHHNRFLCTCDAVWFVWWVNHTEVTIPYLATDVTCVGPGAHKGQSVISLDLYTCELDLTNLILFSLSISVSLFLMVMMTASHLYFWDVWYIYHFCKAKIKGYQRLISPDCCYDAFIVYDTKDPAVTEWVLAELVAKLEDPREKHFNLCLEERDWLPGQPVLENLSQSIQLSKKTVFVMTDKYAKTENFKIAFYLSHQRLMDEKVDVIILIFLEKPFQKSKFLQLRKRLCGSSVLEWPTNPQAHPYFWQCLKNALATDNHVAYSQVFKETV
Put plainly: TLR7 wild type NFκB-luc cellular reporter assay. The class given is cell-based. Details: unit not given here. As to conditions: for TLR7-wt (LEC): second part of table. The procedure: as §1
as §2, with “Following 6 hours incubation at 37° C., 5% CO2, the luciferase activity was determined by adding 15 μl of Steady Lite Plus substrate (Perkin Elmer) to each well and readout performed on a ViewLux ultraHTS microplate imager (Perkin Elmer).” left out
For orientation: A reporter such as luciferase makes a cellular process visible.

Where [1] appears, read: HEK293 NFκB-luc reporter, 6 hours incubation.

Marks after values point to notes of the source that are not given here. A value given as a limit tells only on which side of the number the result lay.

Consider `CCCCNc1nc(N)nc2cc(OC)c(OC)cc12` [Compound 1], for which the TLR8-wt_LEC on human TLR8 is on record as 1.1. The TLR7-wt_LEC at human TLR7 (HEK293 NFκB-luc reporter, 6 hours incubation, lowest effective concentration) stood at 5.0.
`CCCC[C@@H](CCO)Nc1nc(N)nc2cc(OC)c(OC)cc12` [Compound 3]: the TLR8-wt_LEC on human TLR8 is 5.5. The TLR7-wt_LEC at human TLR7 (Assay run at 48 hours) was 4.0 *.
For the molecule `CCCCNc1nc(N)nc2cccc(OC)c12` [Compound 9], at human TLR8, the “TLR8-wt (LEC)” value stood at 0.13. Also, the “TLR7-wt (LEC)” value at human TLR7 (setting [1]) worked out at 0.41.
The corresponding values for `CCC[C@@H](CO)Nc1nc(N)nc2cccc(-c3ccccc3)c12` [Compound 10] are more than 25 and 6.08.
Taken in the same sequence, the figures for `CCCCNc1nc(N)nc2cccc(OCCOC)c12` [Compound 11] were 0.17 and 0.08.
The corresponding values for `CCCCCNc1nc(N)nc2ccc(Br)cc12` [Compound 13] are 0.30 and 0.76.
Consider `CCCCNc1nc(N)nc2cc(C(=O)OC)ccc12` [Compound 17], for which the “TLR8-wt (LEC)” value on human TLR8 is recorded as 1.66. Moreover, at human TLR7 (setting [1]), the “TLR7-wt (LEC)” value was found to be 5.10.
As for `CCCCNc1nc(N)nc2cc(CO)ccc12` [Compound 18], the “TLR8-wt (LEC)” value on human TLR8 turned out to be 0.13. Further, on human TLR7 (setting [1]), the “TLR7-wt (LEC)” value is listed as 0.13.
For `CCCCNc1nc(N)nc2ccc(-n3cnc(C)c3)cc12` [Compound 21], the “TLR8-wt (LEC)” value on human TLR8 was found to be 2.55. Further, at human TLR7 (setting [1]), the “TLR7-wt (LEC)” value was more than 25.
The corresponding values for `CCCCNc1nc(N)nc2ccc(CO)cc12` [Compound 24] are 0.22 and 0.93.
The corresponding values for `CCC[C@@H](CCO)Nc1nc(N)nc2ccc(CC)cc12` [Compound 25] are 0.45 and 0.57.
Taken in the same sequence, the figures for `CCC[C@@H](CCO)Nc1nc(N)nc2ccc(C(C)C)cc12` [Compound 26] were 1.97 and 3.60.
For the molecule `CCC[C@@H](CCO)Nc1nc(N)nc2ccc(Oc3ccc(C(F)(F)F)cc3Cl)cc12` [Compound 27], on human TLR8, the “TLR8-wt (LEC)” value was more than 25. Further, at human TLR7 (setting [1]), the “TLR7-wt (LEC)” value came out at 12.95.
The corresponding values for `CCCCNc1nc(N)nc2cc(Cl)c3c(c12)OCCO3` [Compound 28] are 0.88 and 2.06.
Taken in the same sequence, the figures for `CCC[C@@H](CCO)Nc1nc(N)nc2ccc(Oc3ccc(C(F)(F)F)cc3)cc12` [Compound 29] were more than 25 and 11.13.
Taken in the same sequence, the figures for `C#CCOc1cccc2nc(N)nc(NCCCC)c12` [Compound 30] were 0.10 and 0.05.
On to `CCCCNc1nc(N)nc2cccc(OC(C)C)c12` [Compound 31], for which the “TLR8-wt (LEC)” value at human TLR8 was 0.24. Besides, the “TLR7-wt (LEC)” value at human TLR7 (setting [1]) was 0.09.
The corresponding values for `CCCCNc1nc(N)nc2cccc(CCc3ccccc3)c12` [Compound 32] are 0.47 and 0.13.
On to `CCC[C@@H](CO)Nc1nc(N)nc2cc(CO)ccc12` [Compound 33], for which the “TLR8-wt (LEC)” value on human TLR8 worked out at 0.15. Moreover, the “TLR7-wt (LEC)” value on human TLR7 (setting [1]) is 1.88.
Taken in the same sequence, the figures for `CCC[C@@H](CO)Nc1nc(N)nc2ccc(CO)cc12` [Compound 34] were 0.27 and 10.77.
The corresponding values for `CCCCNc1nc(N)nc2ccc(Oc3ccc(C(F)(F)F)cc3Cl)cc12` [Compound 35] are more than 25 and 4.15.
The corresponding values for `CCCCNc1nc(N)nc2cccc(C)c12` [Compound 36] are 0.26 and 0.47.
As for `CCCCNc1nc(N)nc2c(F)cccc12` [Compound 37], at human TLR8, the “TLR8-wt (LEC)” value is 0.25. The “TLR7-wt (LEC)” value at human TLR7 (setting [1]) was found to be 0.16.
The corresponding values for `CCCCNc1nc(N)nc2ccc(F)cc12` [Compound 38] are 0.10 and 0.29.
The corresponding values for `CCCCNc1nc(N)nc2cc(OC)ccc12` [Compound 39] are 0.31 and 0.94.
For `CCCCNc1nc(N)nc2ccc(OC)cc12` [Compound 40], on human TLR8, the “TLR8-wt (LEC)” value amounted to 1.83. In addition, the “TLR7-wt (LEC)” value on human TLR7 (setting [1]) worked out at 5.64.
Taken in the same sequence, the figures for `CCCCNc1nc(N)nc2cccc(Cl)c12` [Compound 41] were 0.13 and 0.99.
The corresponding values for `CCCCNc1nc(N)nc2cc(F)c(F)cc12` [Compound 42] are 0.14 and 1.81.
The corresponding values for `CCC[C@@H](CO)Nc1nc(N)nc2c(C)cccc12` [Compound 43] are 0.12 and 4.54.
As to `CCC[C@@H](CO)Nc1nc(N)nc2cc(C)ccc12` [Compound 44], the “TLR8-wt (LEC)” value on human TLR8 stood at 0.03. The “TLR7-wt (LEC)” value on human TLR7 (setting [1]) worked out at 0.43.
Taken in the same sequence, the figures for `CCC[C@@H](CO)Nc1nc(N)nc2ccc(C)cc12` [Compound 45] were 0.03 and 0.41.
Taken in the same sequence, the figures for `CCC[C@@H](CO)Nc1nc(N)nc2cccc(C)c12` [Compound 46] were 0.04 and 0.77.
The corresponding values for `CCC[C@@H](CO)Nc1nc(N)nc2c(F)cccc12` [Compound 47] are 0.03 and 0.67.
